Data on one compound can be found in patent US20230134986A1, “GLUCOSE TRIPTOLIDE CONJUGATES AND USES THEREOF” (The Johns Hopkins University, priority 2020, published 2023).

Common to all, as to format: cell-based, human
In one assay the test system is HeLa cells. In words: Apoptosis signaling in HeLa cells (nuclear fragmentation, cytochrome c, caspase 3, PARP1). The settings on record: for percentage of cells with nuclear fragmentation: control 6%. Also on record: percentage of cells with nuclear fragmentation / cytochrome c release from mitochondria to cytosol: unit of the concentration uncertain. On the procedure:
Western blot analysis. Whole cell lysates were prepared by adding lysis buffer [4% SDS, 20% glycerol, 10% 2-mercaptoethanol, 0.004% bromophenol blue, 0.125 M Tris-HCl (pH 6.8)] to the cell pellets for 30 minutes in ice followed by centrifugation at 12,000×g for 10 minutes then boiling for 5 minutes. For isolation of cytosolic and mitochondrial fractions of cytochrome C, cell pellets were resuspended in CLAMI buffer (250 mM sucrose, 70 mM KCl, […] digitonin in 1×PBS, protease inhibitor cocktail (1 tablet/10 ml CLAMI buffer)) then incubated on ice for 5 minutes. After centrifugation at 12,000×g for 5 minutes at 4° C., supernatant (cytoplasmic fraction) was collected and the pellet resuspended in lysis buffer as described above. Proteins were then separated by SDS-PAGE and transferred to nitrocellulose membranes (Bio-Rad). After blocking at room temperature for 1 h, membranes were incubated at 4′C overnight with the primary antibodies including anti-Rpb1 (Santa Cruz Biotechnology), anti-XPB (Biotechne), anti-Actin (Developmental Studies Hybridoma Bank), anti-GAPDH (Santa Cruz Biotechnology), anti-cytochrome C (Santa Cruz Biotechnology), anti-PARP1 (Santa Cruz Biotechnology), anti-cleaved caspase 3 (Cell Signaling Technology), anti-VDAC (ProteinTech), anti-HIF-1[…] (BD sciences), and anti-GLUT1 (Santa Cruz Biotechnology) antibodies followed by incubation with horseradish peroxidase-conjugated anti-mouse or anti-rabbit IgG (GE Healthcare) at room temperature for 2 hours. Antibody-protein complexes were detected using enhanced chemiluminescence (ECL) immunoblotting detection reagent (EMD Millipore).
Immunocytochemistry and cytochemistry. HeLa or PC3 cells (2×10^5) were seeded on a MatTek glass bottom culture dish (Fisher Scientific, Pittsburgh, Pa., USA) and allowed to adhere for 24 h. Cells were then treated with either DMSO or drugs for 6 or 24 h then fixed with 4% paraformaldehyde, permeabilized using 1×PBS with 0.5% triton X 100 then probed for endogenous RNA Polymerase II catalytic subunit Rpb1 or HIF-1α using anti-RNAPII (Santa Cruz Biotechnology) and anti-HIF-1α (BD sciences) antibodies, respectively. Detection was then done using anti-mouse Alexa Fluor 488 (Invitrogen). For nuclear staining, fixed and permeabilized cells were incubated in DAPI (ThermoFisher) or Hoechst 33258 (Sigma) for 30 minutes prior to imaging. Glucose uptake was monitored by incubating cells in 200 μM 2-NBDG (ThermoFisher) for 6 hours prior to fixation. Fluorescence was observed under the Nikon Eclipse TE200 Inverted microscope (Nikon Instruments Inc., Melville, N.Y., USA). ImageJ software (NIH, Bethesda, Md., USA; http://imagej.nih.gov/ij/index.html) was used to measure intracellular protein levels in immuno-cytochemistry samples (Li et al. (2015) Toxicological Sciences: an Official Journal of the Society of Toxicology 143:196-208). Rpb1 levels were measured using the MEASURE feature of ImageJ where all the background signals were subtracted from the intergrated density of nuclear Rpb1.

Assay [1] relates to RPB1 in C342T XPB mutant cell line. In words: RPB1 degradation in C342T XPB knock-in cells, western blot. Particulars: C342T XPB mutant cell line, compound 1 up to 3 mM (so in the source). From the text:
Cells and culture conditions. Primary astrocytes (Lonza, Walkersville, Md.; ABM™ Basal Media with AGM™ SingleQuots™ Supplement Pack), fibroblast (ATCC; Fibroblast Basal Medium (ATCC© PCS-201-030™) with Fibroblast Growth Kit-Serum-free (ATCC© PCS-201-040™)), airway epithelial cell (ATCC; Airway Epithelial Cell Basal Medium (ATCC© PCS-300-030™) with Bronchial Epithelial Cell Growth Kit (ATCC© PCS-300-040™)), renal proximal tubule (ATCC; Renal Epithelial Cell Basal Medium (ATCC© PCS-400-030™) with Renal Epithelial Cell Growth Kit (ATCC© PCS-400-040™)), prostate epithelial cell (Lonza; PrEGM™ BulletKit™) and mammary epithelial cell (Lonza; MEBM™ BulletKit™) were kept in a humidified incubator at 37° C. adjusted to 5% CO2. […]
Western blot analysis. […] Antibody-protein complexes were detected using enhanced chemiluminescence (ECL) immunoblotting detection reagent (EMD Millipore).
On the technique in general: Immunoblotting shows a protein as a band on a membrane.

For a further assay, the system named is MDA MB231 cells. In words: MDA MB231 proliferation under hypoxia ([3H]-thymidine incorporation). Particulars: MDA MB231, 1% O2, 48 h post treatment. For orientation: Incorporation of labelled thymidine or its analogues reports DNA synthesis.
[2] abbreviates: HeLa, 3 (unit uncertain) compound 1.

Structures are written as SMILES.

As to `CC(C)[C@]12O[C@H]1[C@@H]1O[C@]13[C@]1(O[C@H]1C[C@H]1C4=C(CC[C@@]13C)C(=O)OC4)[C@@H]2OC(=O)CCCO[C@@H]1OC(CO)[C@@H](O)C(O)C1O` (stereo in doubt) [Compound 1], the “percentage of cells with nuclear fragmentation” value in the assay with HeLa cells (HeLa, 1 (unit uncertain) compound 1) is on record as 23%. Moreover, in the assay on HeLa cells (setting [2]), the “cytochrome c release from mitochondria to cytosol” value is “triggers the release of cytochrome c” and the “percentage of cells with nuclear fragmentation” value is on record as 53%. Also, the caspase-3 activation result in the assay on HeLa cells (HeLa, western blot) is reported as “activated caspase-3 dose dependently”. Further, the PARP1 cleavage entry in the assay on HeLa cells (increasing concentrations of compound 1, western blot) was “Pronounced PARP1 cleavage”. Moreover, in assay [1], the RPB1 level result is recorded as “remained stable”. The “effect of hypoxia on anti-proliferative effect” value with MDA MB231 cells is reported as “enhances the anti-proliferative effect”.
